Test results: patent publication US12202805B2, “Process for preparing (5S)-{[2-(4-carboxyphenyl)ethyl] |2-(2-{|3-chloro-4'-(trifluoromethyl)biphenyl-4-yl]methoxy}phenyl)ethyl]aminol-5,6,7,8-tetrahydroquinoline-2-carboxylic acid and its crystalline forms for use as pharmaceutically active compound” (Bayer Aktiengesellschaft, priority 2021, dated 2025)
Values joined by “and” are separate entries in the source; they are usually repeats but may differ in a detail not shown here. Equal entries are not always repeated.

Test system: thromboxane A2 challenged PAH-minipig
Test: Haemodynamics in the anesthetized thromboxane challenged minipig, intratracheal dry powder (PAP, BP)
Assay type: in vivo, Göttingen Minipigs
Conditions: for BP (absolute values) / PAP (absolute values): lactose vehicle first, test powder 1.5 mg/4 kg i.t. @90 min, each animal (n=3); for % changes vs. baseline on PAP: baseline 100.0 at 80 min, i.t. dry powder, each animal
Method: Healthy Göttingen Minipigs® Ellegaard (Ellegaard, Denmark) of both sexes and having a weight of 2-6 kg were used. The animals were sedated by i.m. administration of about 25 mg/kg ketamine and about 10 mg/kg azaperone. Anaesthesia was initiated by i.v. administration of about 2 mg/kg ketamine and about 0.3 mg/kg midazolam. Maintenance of anaesthesia was by i.v. administration of about 7.5-30 mg/kg/h ketamine and about 1-4 mg/kg/h midazolam (rate of infusion 1-4 ml/kg/h) and about 150 μg/kg/h pancuronium bromide (for example Pancuronium-Actavis). After intubation, the animals were ventilated by the ventilator at a constant respiratory volume (10-12 ml/kg, 35 breaths/min; Avea®, Viasys Healthcare, USA, or Engström Carestation, GE Healthcare, Freiburg, Germany) such that an end-tidal CO2 concentration of about 5% was achieved. Ventilation was performed with room air, enriched with about 40% oxygen (normoxia). For the measurement of the haemodynamic parameters such as pulmonary arterial pressure (PAP), blood pressure (BP) and heart rate (HR), catheters were inserted into the carotid artery to measure the blood pressure, and a Swan-Ganz® catheter was introduced in a flow-directed manner via the jugular vein into the pulmonary artery. The haemodynamic signals were recorded and evaluated by means of pressure transducers (Combitransducer, B. Braun, Melsungen, Germany)/amplifiers and Ponemah® as data acquisition software.
As reference pure Lactose vehicle was applied in the beginning of each experiment.

[1] = time 150 min, listed as ex. 6e, sesquihydrate
[2] = time 160 min, listed as ex. 6e, sesquihydrate
[3] = time 170 min, listed as ex. 6e, sesquihydrate
[4] = time 180 min, listed as ex. 6e, sesquihydrate
[5] = time 190 min, listed as ex. 6e, sesquihydrate
[6] = time 200 min, listed as ex. 6e, sesquihydrate
[7] = time 210 min, listed as ex. 6e, sesquihydrate
[8] = time 220 min, listed as ex. 6e, sesquihydrate
[9] = time 230 min, listed as ex. 6e, sesquihydrate
[10] = time 240 min, listed as ex. 6e, sesquihydrate
[11] = time 250 min, listed as ex. 6e, sesquihydrate
[12] = time 260 min, listed as ex. 6e, sesquihydrate
[13] = time 270 min, listed as ex. 6e, sesquihydrate
[14] = time 280 min, listed as ex. 6e, sesquihydrate
[15] = time 290 min, listed as ex. 6e, sesquihydrate
[16] = time 300 min, listed as ex. 6e, sesquihydrate
[17] = time 310 min, listed as ex. 6e, sesquihydrate
[18] = time not given, 1st row after 310 min, listed as ex. 6e, sesquihydrate
[19] = time not given, 2nd row after 310 min, listed as ex. 6e, sesquihydrate
[20] = time −10 min, 375 μg/kg i.t., sesquihydrate

Which results are given for `O.O.O.O=C(O)c1ccc(CCN(CCc2ccccc2OCc2ccc(-c3ccc(C(F)(F)F)cc3)cc2Cl)[C@H]2CCCc3nc(C(=O)O)ccc32)cc1.O=C(O)c1ccc(CCN(CCc2ccccc2OCc2ccc(-c3ccc(C(F)(F)F)cc3)cc2Cl)[C@H]2CCCc3nc(C(=O)O)ccc32)cc1` [example 6e, (5S)—{[2-(4-Carboxyphenyl)ethyl][2-(2-{[3-chloro-4′-(trifluoromethyl)biphenyl-4-yl]methoxy}phenyl)-ethyl]amino}-5,6,7,8-tetrahydroquinoline-2-carboxylic acid sesquihydrate]?
BP (absolute values) (time 150 min): 99 mmHg; BP (absolute values) [1]: 121 mmHg and 114 mmHg; PAP (absolute values) [1]: 30.3 mmHg and 29.0 mmHg and 26.6 mmHg; % changes vs. baseline on PAP (time 160 min, sesquihydrate): 71.0% and 79.5% and 65.9%; BP (absolute values) (time 160 min): 100 mmHg; BP (absolute values) [2]: 122 mmHg and 114 mmHg; PAP (absolute values) [2]: 29.0 mmHg and 30.3 mmHg and 26.9 mmHg; % changes vs. baseline on PAP (time 170 min, sesquihydrate): 68.5% and 74.3% and 61.5%; BP (absolute values) [3]: 101 mmHg and 121 mmHg and 115 mmHg; PAP (absolute values) [3]: 28.0 mmHg and 28.3 mmHg and 25.1 mmHg; % changes vs. baseline on PAP (time 180 min, sesquihydrate): 63.2% and 80.8% and 62.0%; BP (absolute values) (time 180 min): 99 mmHg; BP (absolute values) [4]: 119 mmHg and 115 mmHg; PAP (absolute values) [4]: 25.8 mmHg and 30.8 mmHg and 25.3 mmHg; % changes vs. baseline on PAP (time 190 min, sesquihydrate): 61.5% and 80.8% and 58.6%; BP (absolute values) (time 190 min): 99 mmHg; BP (absolute values) [5]: 123 mmHg and 114 mmHg; PAP (absolute values) [5]: 30.8 mmHg and 23.9 mmHg; % changes vs. baseline on PAP (time 200 min, sesquihydrate): 62.3% and 80.3% and 60.2%; BP (absolute values) (time 200 min): 98 mmHg; BP (absolute values) [6]: 116 mmHg and 113 mmHg; PAP (absolute values) [6]: 25.5 mmHg and 30.6 mmHg and 24.6 mmHg; % changes vs. baseline on PAP (time 210 min, sesquihydrate): 61.0% and 80.7% and 59.4%; BP (absolute values) (time 210 min): 99 mmHg; BP (absolute values) [7]: 117 mmHg and 116 mmHg; PAP (absolute values) [7]: 25.0 mmHg and 30.8 mmHg and 24.2 mmHg; % changes vs. baseline on PAP (time 220 min, sesquihydrate): 59.5% and 86.3% and 57.8%; BP (absolute values) (time 220 min): 97 mmHg; BP (absolute values) [8]: 123 mmHg and 114 mmHg; PAP (absolute values) [8]: 24.3 mmHg and 32.9 mmHg and 23.6 mmHg; % changes vs. baseline on PAP (time 230 min, sesquihydrate): 58.6% and 82.6% and 57.8%; BP (absolute values) (time 230 min): 97 mmHg; BP (absolute values) [9]: 119 mmHg and 114 mmHg; PAP (absolute values) [9]: 24.0 mmHg and 31.5 mmHg and 23.6 mmHg; % changes vs. baseline on PAP (time 240 min, sesquihydrate): 59.3% and 81.5% and 57.6%; BP (absolute values) (time 240 min): 97 mmHg; BP (absolute values) [10]: 119 mmHg and 112 mmHg; PAP (absolute values) [10]: 24.3 mmHg and 31.0 mmHg and 23.5 mmHg; % changes vs. baseline on PAP (time 250 min, sesquihydrate): 59.3% and 82.2% and 56.1%; BP (absolute values) (time 250 min): 97 mmHg; BP (absolute values) [11]: 118 mmHg and 111 mmHg; PAP (absolute values) [11]: 24.2 mmHg and 31.3 mmHg and 22.9 mmHg; % changes vs. baseline on PAP (time 260 min, sesquihydrate): 58.8% and 82.7% and 57.6%; BP (absolute values) (time 260 min): 96 mmHg; BP (absolute values) [12]: 116 mmHg and 112 mmHg; PAP (absolute values) [12]: 24.0 mmHg and 31.5 mmHg and 23.5 mmHg; % changes vs. baseline on PAP (time 270 min, sesquihydrate): 59.9% and 78.3% and 55.4%; BP (absolute values) (time 270 min): 99 mmHg; BP (absolute values) [13]: 115 mmHg and 109 mmHg; PAP (absolute values) [13]: 24.5 mmHg and 29.8 mmHg and 22.6 mmHg; % changes vs. baseline on PAP (time 280 min, sesquihydrate): 58.4% and 78.3% and 55.9%; BP (absolute values) [14]: 97 mmHg and 111 mmHg and 110 mmHg; PAP (absolute values) [14]: 23.9 mmHg and 29.8 mmHg and 22.8 mmHg; % changes vs. baseline on PAP (time 290 min, sesquihydrate): 57.4% and 79.6% and 53.9%; BP (absolute values) [15]: 97 mmHg and 110 mmHg and 107 mmHg; PAP (absolute values) [15]: 23.5 mmHg and 30.3 mmHg and 22.0 mmHg; % changes vs. baseline on PAP (time 300 min, sesquihydrate): 60.1% and 78.7% and 54.5%; BP (absolute values) (time 300 min): 98 mmHg; BP (absolute values) [16]: 109 mmHg and 108 mmHg; PAP (absolute values) [16]: 24.6 mmHg and 30.0 mmHg and 22.2 mmHg; % changes vs. baseline on PAP (time 310 min, sesquihydrate): 58.4% and 77.6% and 53.7%; BP (absolute values) (time 310 min): 97 mmHg; BP (absolute values) [17]: 109 mmHg and 105 mmHg; PAP (absolute values) [17]: 23.9 mmHg and 29.6 mmHg and 21.9 mmHg; % changes vs. baseline on PAP (time 320 min, sesquihydrate): 61.8% and 76.3% and 55.1%; % changes vs. baseline on PAP (time 330 min, sesquihydrate): 61.3% and 74.8% and 53.0%; BP (absolute values) (time not given, 1st row after 310 min): 94 mmHg; BP (absolute values) [18]: 108 mmHg and 105 mmHg; PAP (absolute values) [18]: 25.3 mmHg and 29.1 mmHg and 22.5 mmHg; BP (absolute values) (time not given, 2nd row after 310 min): 97 mmHg; BP (absolute values) [19]: 108 mmHg and 105 mmHg; PAP (absolute values) [19]: 25.1 mmHg and 28.5 mmHg and 21.6 mmHg; BP (mean) (time −10 min, 375 μg/kg i.t.): 99 mmHg; BP (mean) [20]: 107 mmHg and 119 mmHg; PAP(mean) [20]: 42.0 mmHg and 36.4 mmHg and 37.5 mmHg
